{
  "source": "patent US20060069132A1",
  "about": "“Azolecarboxamide herbicides” (priority 2004, published 2006)",
  "key": {"barnyardgrass [1]": {"tested_on": "barnyardgrass", "assay": "Test B pre-/postemergence herbicide test", "type": "in vivo, Echinochloa crus-galli", "conditions": "for Barnyardgrass plant response rating: postemergence, visual rating, scale 0 (no effect) to 100 (complete control)", "in_short": "(§1)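 Species tested were Echinochloa crus-galli, Ipomoea coccinea, Xanthium strumarium and Oryza sativa, treated both before emergence and at the 1- to 4-leaf stage; rice and barnyardgrass were also tested under flooding at 2 leaves. Greenhouse incubation lasted 13–15 days before visual 0–100 scoring.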"}, "Surinam grass": {"tested_on": "Surinam grass", "assay": "Test B pre-/postemergence herbicide test", "type": "in vivo, Urochloa decumbens", "conditions": "for Surinam Grass plant response rating: postemergence, visual rating, scale 0 (no effect) to 100 (complete control)", "in_short": "(§2)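 Formulation: non-phytotoxic solvent mix with surfactant. Timing: preemergence on seed and postemergence on 2–18 cm plants, applied concurrently. Readout after 13–15 d greenhouse: visual 0–100 control rating against controls.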"}, "cocklebur": {"tested_on": "cocklebur", "assay": "Test B pre-/postemergence herbicide test", "type": "in vivo, Xanthium strumarium", "conditions": "for Cocklebur plant response rating: postemergence, visual rating, scale 0 (no effect) to 100 (complete control)", "in_short": "as §1"}, "corn": {"tested_on": "corn", "assay": "Test B pre-/postemergence herbicide test", "type": "in vivo, Zea mays", "conditions": "for Corn plant response rating: postemergence, visual rating, scale 0 (no effect) to 100 (complete control)", "in_short": "as §2"}, "large crabgrass": {"tested_on": "large crabgrass", "assay": "Test B pre-/postemergence herbicide test", "type": "in vivo, Digitaria sanguinalis", "conditions": "for Crabgrass, Large plant response rating: postemergence, visual rating, scale 0 (no effect) to 100 (complete control)", "in_short": "as §2"}, "giant foxtail": {"tested_on": "giant foxtail", "assay": "Test B pre-/postemergence herbicide test", "type": "in vivo, Setaria faberi", "conditions": "for Foxtail, Giant plant response rating: postemergence, visual rating, scale 0 (no effect) to 100 (complete control)", "in_short": "as §2"}, "lambsquarters": {"tested_on": "lambsquarters", "assay": "Test B pre-/postemergence herbicide test", "type": "in vivo, Chenopodium album", "conditions": "for Lambsquarters plant response rating: postemergence, visual rating, scale 0 (no effect) to 100 (complete control)", "in_short": "as §2"}, "morningglory": {"tested_on": "morningglory", "assay": "Test B pre-/postemergence herbicide test", "type": "in vivo, Ipomoea coccinea", "conditions": "for Morningglory plant response rating: postemergence, visual rating, scale 0 (no effect) to 100 (complete control)", "in_short": "as §1"}, "pigweed": {"tested_on": "pigweed", "assay": "Test B pre-/postemergence herbicide test", "type": "in vivo, Amaranthus retroflexus", "conditions": "for Pigweed plant response rating: postemergence, visual rating, scale 0 (no effect) to 100 (complete control)", "in_short": "as §2"}, "rice [2]": {"tested_on": "rice", "assay": "Test B pre-/postemergence herbicide test", "type": "in vivo, Oryza sativa", "conditions": "preemergence", "in_short": "as §2"}, "velvetleaf": {"tested_on": "velvetleaf", "assay": "Test B pre-/postemergence herbicide test", "type": "in vivo, Abutilon theophrasti", "conditions": "for Velvetleaf plant response rating: postemergence, visual rating, scale 0 (no effect) to 100 (complete control)", "in_short": "as §2"}, "blackgrass": {"tested_on": "blackgrass", "assay": "Test B postemergence herbicide test", "type": "in vivo, Alopecurus myosuroides", "conditions": "postemergence, visual rating, scale 0 (no effect) to 100 (complete control)", "in_short": "(§3)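 Plants grow to 1- to 4-leaf stage (2–18 cm) for postemergence spraying, or to 2-leaf stage for the paddy test. Formulated compound is applied. Greenhouse holding lasts 13–15 days. Response is scored visually relative to controls, 0 no effect to 100 complete control; a dash means no result.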"}, "wheat": {"tested_on": "wheat", "assay": "Test B postemergence herbicide test", "type": "in vivo, Triticum aestivum", "design": "key to Wheat plant response rating: 0 = no effect, 100 = complete control", "conditions": "postemergence, visual rating, scale 0 (no effect) to 100 (complete control)", "in_short": "(§4)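 Treated at 2-leaf (paddy) or 1–4-leaf, 2–18 cm (postemergence); greenhouse 13–15 d; visual score vs control, 0 none to 100 complete control; dash = not tested.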"}, "wild oat": {"tested_on": "wild oat", "assay": "Test B postemergence herbicide test", "type": "in vivo, Avena fatua", "conditions": "postemergence, visual rating, scale 0 (no effect) to 100 (complete control)", "in_short": "as §4"}, "rice [3]": {"tested_on": "rice", "assay": "Test B flooded paddy test", "type": "in vivo, Oryza sativa", "conditions": "1000 g ai/ha, visual rating, scale 0 to 100 (0 no effect, 100 complete control), 13 to 15 days", "in_short": "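Scale 0–100: zero equals no visible effect, 100 complete control, judged by eye relative to controls. Timing: 13 to 15 days in greenhouse post-treatment. Growth stage at spraying: two leaves (paddy) or one to four leaves, 2–18 cm (postemergence).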"}, "[4]": {"tested_on": "small flower umbrella sedge", "assay": "Test B flooded paddy test", "type": "in vivo, Cyperus difformis", "conditions": "1000 g ai/ha, visual rating, scale 0 to 100 (0 no effect, 100 complete control), 13 to 15 days", "in_short": "as §3"}, "ducksalad": {"tested_on": "ducksalad", "assay": "Test B flooded paddy test", "type": "in vivo, Heteranthera limosa", "conditions": "1000 g ai/ha, visual rating, scale 0 to 100 (0 no effect, 100 complete control), 13 to 15 days", "in_short": "as §3"}, "barnyardgrass [5]": {"tested_on": "barnyardgrass", "assay": "Test B flooded paddy test", "type": "in vivo, Echinochloa crus-galli", "conditions": "1000 g ai/ha, visual rating, scale 0 to 100 (0 no effect, 100 complete control), 13 to 15 days", "in_short": "as §3"}, "[6]": {"conditions": "125 g ai/ha, 0 = no effect, 100 = complete control, preemergence"}, "[7]": {"conditions": "500 g ai/ha, visual rating 0-100, 0 no effect, 100 complete control, preemergence"}},
  "data": [
    {"smiles": "CCN(CC)C(=O)c1cccc(NC(=O)c2nn(C(C)(C)C)cc2C(F)(F)F)c1", "note": "[Compound 169]", "values": [
      {"measurement": "Barnyardgrass plant response rating (0 to 100 scale)", "setting": "barnyardgrass [1]; [6]", "result": 0},
      {"measurement": "Plant response rating, Barnyardgrass", "setting": "barnyardgrass [1]; [7]", "result": 10},
      {"measurement": "Barnyardgrass plant response rating", "setting": "barnyardgrass [1]; 125 g ai/ha", "result": 0},
      {"measurement": "Barnyardgrass plant response rating", "setting": "barnyardgrass [1]; 500 g ai/ha", "result": 10},
      {"measurement": "Surinam Grass plant response rating (0 to 100 scale)", "setting": "Surinam grass; [6]", "result": 0},
      {"measurement": "Plant response rating, Surinam Grass", "setting": "Surinam grass; [7]", "result": 10},
      {"measurement": "Surinam Grass plant response rating", "setting": "Surinam grass; 125 g ai/ha", "result": 0},
      {"measurement": "Surinam Grass plant response rating", "setting": "Surinam grass; 500 g ai/ha", "result": 10},
      {"measurement": "Cocklebur plant response rating (0 to 100 scale)", "setting": "cocklebur; [6]", "result": 0},
      {"measurement": "Plant response rating, Cocklebur", "setting": "cocklebur; [7]", "result": 0},
      {"measurement": "Cocklebur plant response rating", "setting": "cocklebur; 125 g ai/ha", "result": 0},
      {"measurement": "Cocklebur plant response rating", "setting": "cocklebur; 500 g ai/ha", "result": 0},
      {"measurement": "Corn plant response rating (0 to 100 scale)", "setting": "corn; [6]", "result": 0},
      {"measurement": "Plant response rating, Corn", "setting": "corn; [7]", "result": 0},
      {"measurement": "Corn plant response rating", "setting": "corn; 125 g ai/ha", "result": 10},
      {"measurement": "Corn plant response rating", "setting": "corn; 500 g ai/ha", "result": 10},
      {"measurement": "Crabgrass, Large plant response rating (0 to 100 scale)", "setting": "large crabgrass; [6]", "result": 0},
      {"measurement": "Plant response rating, Crabgrass, Large", "setting": "large crabgrass; [7]", "result": 40},
      {"measurement": "Crabgrass, Large plant response rating", "setting": "large crabgrass; 125 g ai/ha", "result": 10},
      {"measurement": "Crabgrass, Large plant response rating", "setting": "large crabgrass; 500 g ai/ha", "result": 10},
      {"measurement": "Foxtail, Giant plant response rating (0 to 100 scale)", "setting": "giant foxtail; [6]", "result": 0},
      {"measurement": "Plant response rating, Foxtail, Giant", "setting": "giant foxtail; [7]", "result": 10},
      {"measurement": "Foxtail, Giant plant response rating", "setting": "giant foxtail; 125 g ai/ha", "result": 0},
      {"measurement": "Foxtail, Giant plant response rating", "setting": "giant foxtail; 500 g ai/ha", "result": 0},
      {"measurement": "Lambsquarters plant response rating (0 to 100 scale)", "setting": "lambsquarters; [6]", "result": 0},
      {"measurement": "Plant response rating, Lambsquarters", "setting": "lambsquarters; [7]", "result": 60},
      {"measurement": "Lambsquarters plant response rating", "setting": "lambsquarters; 125 g ai/ha", "result": 40},
      {"measurement": "Lambsquarters plant response rating", "setting": "lambsquarters; 500 g ai/ha", "result": 60},
      {"measurement": "Morningglory plant response rating (0 to 100 scale)", "setting": "morningglory; [6]", "result": 0},
      {"measurement": "Plant response rating, Morningglory", "setting": "morningglory; [7]", "result": 10},
      {"measurement": "Morningglory plant response rating", "setting": "morningglory; 125 g ai/ha", "result": 20},
      {"measurement": "Morningglory plant response rating", "setting": "morningglory; 500 g ai/ha", "result": 70},
      {"measurement": "Pigweed plant response rating (0 to 100 scale)", "setting": "pigweed; [6]", "result": 0},
      {"measurement": "Plant response rating, Pigweed", "setting": "pigweed; [7]", "result": 100},
      {"measurement": "Pigweed plant response rating", "setting": "pigweed; 125 g ai/ha", "result": 20},
      {"measurement": "Pigweed plant response rating", "setting": "pigweed; 500 g ai/ha", "result": 40},
      {"measurement": "Rice plant response rating (0 to 100 scale)", "setting": "rice [2]; 125 g ai/ha, 0 = no effect, 100 = complete control", "result": 0},
      {"measurement": "Plant response rating, Rice", "setting": "rice [2]; 500 g ai/ha, visual rating 0-100, 0 no effect, 100 complete control", "result": 0},
      {"measurement": "Velvetleaf plant response rating (0 to 100 scale)", "setting": "velvetleaf; [6]", "result": 0},
      {"measurement": "Plant response rating, Velvetleaf", "setting": "velvetleaf; [7]", "result": 0},
      {"measurement": "Velvetleaf plant response rating", "setting": "velvetleaf; 125 g ai/ha", "result": 0},
      {"measurement": "Velvetleaf plant response rating", "setting": "velvetleaf; 500 g ai/ha", "result": 0},
      {"measurement": "Blackgrass plant response rating", "setting": "blackgrass; 125 g ai/ha", "result": 0},
      {"measurement": "Blackgrass plant response rating", "setting": "blackgrass; 500 g ai/ha", "result": 10},
      {"measurement": "Wheat plant response rating", "setting": "wheat; 125 g ai/ha", "result": 0},
      {"measurement": "Wheat plant response rating", "setting": "wheat; 500 g ai/ha", "result": 0},
      {"measurement": "Oat, Wild plant response rating", "setting": "wild oat; 125 g ai/ha", "result": 10},
      {"measurement": "Oat, Wild plant response rating", "setting": "wild oat; 500 g ai/ha", "result": 10},
      {"measurement": "Rice plant response rating", "setting": "rice [3]", "result": 0},
      {"measurement": "Sedge, Umbrella plant response rating", "setting": "[4]", "result": 0},
      {"measurement": "Ducksalad plant response rating", "setting": "ducksalad", "result": 0},
      {"measurement": "Barnyardgrass plant response rating", "setting": "barnyardgrass [5]", "result": 0}
    ]}
  ]
}
